Assay results from patent publication US20050228046A1, “Alkylamine as an antimicrobial agent in ophthalmic compositions” (ADVANCED MEDICAL OPTICS, INC., priority 2004, published 2005).

System: five FDA/ISO specified test organisms
Test: Antimicrobial activity against the five-microbial panel, FDA/ISO disinfection criteria
Format: cell-based
Settings: for stand-alone criteria: 10 ppm MA
Description: The following is the procedure by which various antimicrobial agents and solutions are tested for their ability to reduce microbial loads over short periods of time, typically 24 hours and less. The procedure is a basic microbiology challenge test, which involves the inoculation of test product aliquots with a known number of viable cells of several test organisms, and assay for the survivors at various time intervals. The results are used to calculate log drops at soak times and construct kill-curves (graphs of survivors versus time) if desired. Candida albicans, ATCC 10231, is one of five organisms specified per FDA and ISO/CLI tests for the testing of contact lens disinfectants (FDA Premarket Notification (510k) Guidance Document for Contact Lens Care Products, Appendix B, Apr. 1, 1997 and ISO/FDIS 14729: Ophthalmic optics-Contact lens care products-Microbiological requirements and test methods for products and regimens for hygienic management of contact lenses, January 2001). Contact lens disinfectants are also known as contact lens multi-purpose solutions when they are used for rinsing, cleaning, disinfection, storage and rewetting contact lenses. The five FDA/ISO specified test organisms are listed below: • Serratia marcescens, ATCC 13880 • Staphylococcus aureus, ATCC 6538 • Pseudomonas aeruginosa, ATCC 9027 • Candida albicans, ATCC 10231 • Fusarium solani, ATCC 36031 Candida albicans is often the most resistant of the five organisms to commonly used cationic antimicrobial agents in contact lens multi-purpose solutions. Thus, achievement of adequate antimicrobial activity against Candida is often the most difficult task to pass a particular disinfection efficacy standard. FDA and ISO guidelines specify two disinfection efficacy standards, indicated in the table below: Stand Alone Disinfectant (Primary) Criteria: [table] The specific test procedure for testing antimicrobial activity against the five FDA/ISO specified test organisms is as follows (C. albicans is provided as a specific example): Test samples are sterile-filtered through a 0.22 micron sterile filter into sterile plastic high density polyethylene bottles or plastic flasks. A 10-mL aliquot of test sample is aseptically transferred into a sterile polystyrene plastic test tube. Sterile saline (0.90 w/v % NaCl) with 0.05 w/v % Polysorbate 80 (SS+TWEEN) is transferred into a separate control tube. All samples and control are stored at 20-25° C. throughout the duration of the test.

In the case of `CCCCCCCCCCCCCCN` [Myristylamine], the stand-alone criteria (Tween 80:MA ratio 7.4) is reported as “fail to meet the stand-alone criteria”, the stand-alone criteria (Tween 80:MA ratio 7.4, with addition of Polyquaternium-1) is reported as “can still be a stand-alone disinfectant product” and the anti-bacteria activity (TPGS:MA ratio of 40) is reported as “lost considerably”. For the same compound, the “anti-fungal activity (Ca and Fs)” value (TPGS:MA ratio of up to 60) was “still seen”.
